8 compounds from ChEMBL document CHEMBL5465560, “Selectivity Literature for EUbOPEN Chemogenomic Library” (2024) can be followed below.

The structures appear in SMILES notation.

Assay [1] addresses Cyclin-dependent kinase 5 (Homo sapiens, UniProt Q00535). The assay can be described thus: Selectivity interaction (ActivX KiNativ screen (ex vivo kinase selectivity in human PBMCs)) EUB0001619a CDK5. The format is cell-based. The note with it: PBMC, at 1 µM.
For assay [2], the target named is Insulin receptor-related protein (Homo sapiens) (UniProt P14616). The assay can be described thus: Selectivity interaction (Kinase screening (Nanosyn)) EUB0000604a INSRR.
Assay [3] deals with Ribosomal protein S6 kinase alpha-2 (Homo sapiens) (UniProt Q15349). The assay can be described thus: Selectivity interaction (Kinase screening (Nanosyn)) EUB0000604a RPS6KA2.
The target of assay [4] is Insulin receptor-related protein (Homo sapiens) (UniProt P14616). The assay can be described thus: Selectivity interaction (KinomeScan (DiscoverX)) EUB0000045b INSRR.
In assay [5] the target is T1, G protein-coupled receptor kinase 3 (Homo sapiens) (UniProt P35626).
T1 sequence (whole entry): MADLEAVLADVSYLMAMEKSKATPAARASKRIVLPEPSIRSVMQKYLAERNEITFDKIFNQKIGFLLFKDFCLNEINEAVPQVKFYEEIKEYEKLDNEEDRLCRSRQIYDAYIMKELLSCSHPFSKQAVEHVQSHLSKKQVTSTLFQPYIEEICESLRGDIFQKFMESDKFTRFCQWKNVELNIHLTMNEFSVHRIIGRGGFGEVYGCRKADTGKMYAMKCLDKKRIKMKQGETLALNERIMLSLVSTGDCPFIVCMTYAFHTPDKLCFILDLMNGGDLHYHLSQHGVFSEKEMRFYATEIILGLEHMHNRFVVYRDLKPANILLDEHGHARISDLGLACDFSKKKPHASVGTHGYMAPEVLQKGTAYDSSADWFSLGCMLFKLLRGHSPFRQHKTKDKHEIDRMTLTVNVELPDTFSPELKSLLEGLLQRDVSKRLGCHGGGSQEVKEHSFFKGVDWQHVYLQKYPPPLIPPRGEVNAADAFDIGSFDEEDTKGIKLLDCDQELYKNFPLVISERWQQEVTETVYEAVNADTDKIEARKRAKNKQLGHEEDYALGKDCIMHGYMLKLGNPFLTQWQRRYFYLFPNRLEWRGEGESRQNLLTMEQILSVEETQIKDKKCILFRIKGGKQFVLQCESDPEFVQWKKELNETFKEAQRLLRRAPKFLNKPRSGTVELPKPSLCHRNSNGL
The assay can be described thus: Selectivity interaction (KinomeScan (DiscoverX)) EUB0001049a ADRBK2. As to conditions: at 1 µM.

For assay [6], the target named is Serine/threonine-protein kinase WNK3 (Homo sapiens) (UniProt Q9BYP7). The assay can be described thus: Selectivity interaction (KinomeScan (DiscoverX)) EUB0001049a WNK3. The note with it: at 1 µM.
The target in assay [7] is T2, Ephrin type-B receptor 2 (Homo sapiens) (UniProt P29323).
T2 sequence (whole entry): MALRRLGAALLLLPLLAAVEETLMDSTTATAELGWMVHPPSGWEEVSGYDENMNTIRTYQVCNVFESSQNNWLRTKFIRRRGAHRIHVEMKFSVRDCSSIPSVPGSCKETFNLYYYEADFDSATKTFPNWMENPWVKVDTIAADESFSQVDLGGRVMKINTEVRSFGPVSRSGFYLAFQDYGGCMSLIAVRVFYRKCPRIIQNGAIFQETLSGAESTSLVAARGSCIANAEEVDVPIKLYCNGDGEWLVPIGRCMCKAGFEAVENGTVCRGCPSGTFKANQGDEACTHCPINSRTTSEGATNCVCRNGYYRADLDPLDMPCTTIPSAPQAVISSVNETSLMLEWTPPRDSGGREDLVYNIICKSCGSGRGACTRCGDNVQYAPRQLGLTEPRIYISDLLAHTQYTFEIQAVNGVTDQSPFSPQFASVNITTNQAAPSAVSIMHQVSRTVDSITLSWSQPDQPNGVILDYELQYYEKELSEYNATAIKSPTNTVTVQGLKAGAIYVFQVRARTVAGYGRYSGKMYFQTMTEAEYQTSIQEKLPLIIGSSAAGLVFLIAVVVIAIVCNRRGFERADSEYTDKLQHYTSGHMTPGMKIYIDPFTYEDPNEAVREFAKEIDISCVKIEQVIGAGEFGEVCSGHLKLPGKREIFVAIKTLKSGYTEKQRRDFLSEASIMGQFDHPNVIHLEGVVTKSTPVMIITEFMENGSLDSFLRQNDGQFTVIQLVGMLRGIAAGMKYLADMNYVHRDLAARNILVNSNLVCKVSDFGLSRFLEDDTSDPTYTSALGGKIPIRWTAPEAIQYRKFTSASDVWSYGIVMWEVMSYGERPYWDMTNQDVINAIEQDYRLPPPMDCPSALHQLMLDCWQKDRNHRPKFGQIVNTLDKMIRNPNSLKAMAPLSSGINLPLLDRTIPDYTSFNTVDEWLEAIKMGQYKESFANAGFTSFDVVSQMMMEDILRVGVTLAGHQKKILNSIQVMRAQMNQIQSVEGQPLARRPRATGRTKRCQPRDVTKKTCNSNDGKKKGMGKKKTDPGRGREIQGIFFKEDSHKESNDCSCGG
The assay can be described thus: Selectivity interaction (Upstate Kinase Profiler service (Millipore)) EUB0000056c EPHB2. The note with it: at 1 µM.

For assay [8], the target named is LIM domain kinase 1 (Homo sapiens) (UniProt P53667). The assay can be described thus: Selectivity interaction (KinomeScan (DiscoverX)) EUB0000655a LIMK1. The note with it: at 10 µM.
Assay [9] deals with Serine/threonine-protein kinase PAK 3 (Homo sapiens) (UniProt O75914). The assay can be described thus: Selectivity interaction (KinomeScan (DiscoverX)) EUB0000655a PAK3. The note with it: at 10 µM.
Assay [10] addresses T3, Megakaryocyte-associated tyrosine-protein kinase (Homo sapiens) (UniProt P42679).
T3 sequence (whole entry): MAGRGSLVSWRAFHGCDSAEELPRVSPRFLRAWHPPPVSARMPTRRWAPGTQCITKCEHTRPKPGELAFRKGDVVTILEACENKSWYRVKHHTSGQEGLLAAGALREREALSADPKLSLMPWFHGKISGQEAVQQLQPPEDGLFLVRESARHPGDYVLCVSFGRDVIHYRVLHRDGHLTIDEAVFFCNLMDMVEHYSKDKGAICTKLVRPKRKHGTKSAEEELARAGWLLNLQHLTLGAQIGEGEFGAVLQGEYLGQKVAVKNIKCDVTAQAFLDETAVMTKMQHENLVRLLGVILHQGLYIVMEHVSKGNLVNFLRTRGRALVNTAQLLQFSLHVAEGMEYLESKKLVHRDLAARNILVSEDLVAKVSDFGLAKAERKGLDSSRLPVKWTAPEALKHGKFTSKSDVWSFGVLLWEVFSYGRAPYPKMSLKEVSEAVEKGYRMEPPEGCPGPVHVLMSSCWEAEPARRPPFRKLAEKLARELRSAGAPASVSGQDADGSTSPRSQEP
The assay can be described thus: Selectivity interaction (KinomeScan (DiscoverX)) EUB0000618a MATK. The note with it: at 10 µM.

Assay [11] deals with STE20/SPS1-related proline-alanine-rich protein kinase (Homo sapiens) (UniProt Q9UEW8). The assay can be described thus: Selectivity interaction (KinomeScan (DiscoverX)) EUB0001079a STK39. The note with it: at 1 µM.

Insulin receptor-related protein (Homo sapiens), sequence (P14616 27-742 limits assumed): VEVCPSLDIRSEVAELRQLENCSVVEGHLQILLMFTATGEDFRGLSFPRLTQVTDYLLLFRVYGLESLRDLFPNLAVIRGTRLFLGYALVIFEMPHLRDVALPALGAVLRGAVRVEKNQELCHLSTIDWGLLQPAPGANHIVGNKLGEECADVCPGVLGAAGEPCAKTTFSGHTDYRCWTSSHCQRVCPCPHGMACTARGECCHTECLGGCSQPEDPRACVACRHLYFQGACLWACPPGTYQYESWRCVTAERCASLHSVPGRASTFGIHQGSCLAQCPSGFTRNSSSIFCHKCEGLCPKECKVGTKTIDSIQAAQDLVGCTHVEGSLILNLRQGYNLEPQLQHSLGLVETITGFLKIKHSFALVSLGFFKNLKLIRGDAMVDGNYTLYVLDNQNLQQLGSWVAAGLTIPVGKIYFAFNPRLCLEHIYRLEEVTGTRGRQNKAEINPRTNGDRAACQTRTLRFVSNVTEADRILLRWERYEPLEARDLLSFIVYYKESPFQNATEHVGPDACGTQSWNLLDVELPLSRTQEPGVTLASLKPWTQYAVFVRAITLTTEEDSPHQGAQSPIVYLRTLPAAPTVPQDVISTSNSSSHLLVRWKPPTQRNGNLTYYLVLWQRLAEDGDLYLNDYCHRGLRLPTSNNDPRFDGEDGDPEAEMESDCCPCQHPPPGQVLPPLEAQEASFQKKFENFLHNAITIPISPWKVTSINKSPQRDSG
Insulin receptor-related protein (Homo sapiens), sequence (P14616 747-1297 limits assumed): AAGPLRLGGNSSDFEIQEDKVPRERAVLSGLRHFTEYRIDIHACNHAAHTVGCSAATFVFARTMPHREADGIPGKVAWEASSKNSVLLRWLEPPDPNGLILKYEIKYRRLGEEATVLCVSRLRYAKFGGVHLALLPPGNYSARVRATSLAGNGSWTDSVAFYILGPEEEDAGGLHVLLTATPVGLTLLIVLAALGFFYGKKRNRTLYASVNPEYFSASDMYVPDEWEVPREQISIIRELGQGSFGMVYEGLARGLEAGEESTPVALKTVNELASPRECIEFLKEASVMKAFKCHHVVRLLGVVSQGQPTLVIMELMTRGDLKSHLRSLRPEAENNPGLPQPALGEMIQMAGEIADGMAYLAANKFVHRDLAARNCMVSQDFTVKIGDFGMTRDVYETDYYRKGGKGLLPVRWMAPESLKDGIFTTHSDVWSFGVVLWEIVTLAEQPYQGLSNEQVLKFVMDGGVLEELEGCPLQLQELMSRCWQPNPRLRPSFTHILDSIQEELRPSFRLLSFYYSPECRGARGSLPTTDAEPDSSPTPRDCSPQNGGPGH
Serine/threonine-protein kinase WNK3 (Homo sapiens), sequence (Q9BYP7 whole entry): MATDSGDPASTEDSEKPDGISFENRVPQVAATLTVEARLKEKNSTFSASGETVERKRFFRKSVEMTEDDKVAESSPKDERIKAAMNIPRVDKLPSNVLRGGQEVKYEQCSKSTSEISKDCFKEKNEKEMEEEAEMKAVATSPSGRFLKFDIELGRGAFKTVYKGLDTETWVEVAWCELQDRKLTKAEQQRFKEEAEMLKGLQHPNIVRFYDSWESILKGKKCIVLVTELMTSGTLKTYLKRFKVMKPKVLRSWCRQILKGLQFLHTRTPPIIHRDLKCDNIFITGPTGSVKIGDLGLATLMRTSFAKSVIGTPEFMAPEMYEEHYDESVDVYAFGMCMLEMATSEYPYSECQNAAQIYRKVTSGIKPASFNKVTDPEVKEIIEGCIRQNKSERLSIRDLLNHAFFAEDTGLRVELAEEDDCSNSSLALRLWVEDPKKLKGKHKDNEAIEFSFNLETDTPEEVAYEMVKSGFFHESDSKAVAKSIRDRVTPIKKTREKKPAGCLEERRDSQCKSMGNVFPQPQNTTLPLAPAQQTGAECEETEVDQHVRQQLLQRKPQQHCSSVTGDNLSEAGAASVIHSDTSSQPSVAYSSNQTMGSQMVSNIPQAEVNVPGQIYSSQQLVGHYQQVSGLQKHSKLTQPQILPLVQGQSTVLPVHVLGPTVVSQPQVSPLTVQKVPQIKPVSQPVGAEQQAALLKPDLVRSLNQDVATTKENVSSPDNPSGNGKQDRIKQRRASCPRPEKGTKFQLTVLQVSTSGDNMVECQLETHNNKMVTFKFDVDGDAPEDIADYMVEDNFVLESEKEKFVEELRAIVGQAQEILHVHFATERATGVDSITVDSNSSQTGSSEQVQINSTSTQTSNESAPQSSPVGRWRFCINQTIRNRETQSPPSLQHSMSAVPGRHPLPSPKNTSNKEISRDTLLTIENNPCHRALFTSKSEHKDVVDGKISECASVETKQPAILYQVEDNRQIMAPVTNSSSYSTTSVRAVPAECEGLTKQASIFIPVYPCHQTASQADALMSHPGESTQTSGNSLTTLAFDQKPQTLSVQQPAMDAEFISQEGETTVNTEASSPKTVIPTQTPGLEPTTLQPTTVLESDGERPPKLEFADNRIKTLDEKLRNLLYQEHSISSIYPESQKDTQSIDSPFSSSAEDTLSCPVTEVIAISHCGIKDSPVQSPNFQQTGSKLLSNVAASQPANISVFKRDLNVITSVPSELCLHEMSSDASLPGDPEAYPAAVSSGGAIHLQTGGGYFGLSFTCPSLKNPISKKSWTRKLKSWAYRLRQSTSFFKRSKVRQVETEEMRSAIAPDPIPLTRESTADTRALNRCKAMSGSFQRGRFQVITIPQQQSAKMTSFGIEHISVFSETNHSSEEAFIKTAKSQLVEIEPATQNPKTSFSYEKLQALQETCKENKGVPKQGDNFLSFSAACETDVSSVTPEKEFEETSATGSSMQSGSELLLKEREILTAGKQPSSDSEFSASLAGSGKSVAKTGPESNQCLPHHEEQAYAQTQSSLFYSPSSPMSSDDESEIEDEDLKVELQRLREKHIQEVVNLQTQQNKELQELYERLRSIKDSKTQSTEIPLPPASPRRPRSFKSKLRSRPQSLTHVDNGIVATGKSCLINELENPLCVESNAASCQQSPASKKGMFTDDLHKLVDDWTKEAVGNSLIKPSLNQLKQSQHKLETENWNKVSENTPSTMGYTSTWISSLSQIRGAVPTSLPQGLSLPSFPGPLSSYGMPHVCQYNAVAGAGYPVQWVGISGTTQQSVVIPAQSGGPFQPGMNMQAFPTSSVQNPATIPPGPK
LIM domain kinase 1 (Homo sapiens), sequence (P53667 whole entry, looked up, the tested form may be a part): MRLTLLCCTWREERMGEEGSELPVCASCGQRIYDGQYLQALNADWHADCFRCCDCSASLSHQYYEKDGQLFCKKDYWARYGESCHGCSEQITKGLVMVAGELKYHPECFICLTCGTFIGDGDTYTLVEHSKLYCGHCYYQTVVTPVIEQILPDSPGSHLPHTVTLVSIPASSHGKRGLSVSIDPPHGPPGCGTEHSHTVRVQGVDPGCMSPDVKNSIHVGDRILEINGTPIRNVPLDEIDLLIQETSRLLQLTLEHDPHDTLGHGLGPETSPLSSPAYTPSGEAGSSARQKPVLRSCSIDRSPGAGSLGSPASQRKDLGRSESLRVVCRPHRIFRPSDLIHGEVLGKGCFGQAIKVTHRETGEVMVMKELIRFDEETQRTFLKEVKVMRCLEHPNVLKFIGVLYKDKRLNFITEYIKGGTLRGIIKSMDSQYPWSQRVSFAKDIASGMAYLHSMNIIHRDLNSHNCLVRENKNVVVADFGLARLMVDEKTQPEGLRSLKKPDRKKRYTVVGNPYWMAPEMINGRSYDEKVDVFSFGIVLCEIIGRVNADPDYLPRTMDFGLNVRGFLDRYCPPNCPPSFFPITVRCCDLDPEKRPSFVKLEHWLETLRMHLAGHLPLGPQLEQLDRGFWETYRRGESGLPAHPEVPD
Ribosomal protein S6 kinase alpha-2 (Homo sapiens), sequence (Q15349 whole entry): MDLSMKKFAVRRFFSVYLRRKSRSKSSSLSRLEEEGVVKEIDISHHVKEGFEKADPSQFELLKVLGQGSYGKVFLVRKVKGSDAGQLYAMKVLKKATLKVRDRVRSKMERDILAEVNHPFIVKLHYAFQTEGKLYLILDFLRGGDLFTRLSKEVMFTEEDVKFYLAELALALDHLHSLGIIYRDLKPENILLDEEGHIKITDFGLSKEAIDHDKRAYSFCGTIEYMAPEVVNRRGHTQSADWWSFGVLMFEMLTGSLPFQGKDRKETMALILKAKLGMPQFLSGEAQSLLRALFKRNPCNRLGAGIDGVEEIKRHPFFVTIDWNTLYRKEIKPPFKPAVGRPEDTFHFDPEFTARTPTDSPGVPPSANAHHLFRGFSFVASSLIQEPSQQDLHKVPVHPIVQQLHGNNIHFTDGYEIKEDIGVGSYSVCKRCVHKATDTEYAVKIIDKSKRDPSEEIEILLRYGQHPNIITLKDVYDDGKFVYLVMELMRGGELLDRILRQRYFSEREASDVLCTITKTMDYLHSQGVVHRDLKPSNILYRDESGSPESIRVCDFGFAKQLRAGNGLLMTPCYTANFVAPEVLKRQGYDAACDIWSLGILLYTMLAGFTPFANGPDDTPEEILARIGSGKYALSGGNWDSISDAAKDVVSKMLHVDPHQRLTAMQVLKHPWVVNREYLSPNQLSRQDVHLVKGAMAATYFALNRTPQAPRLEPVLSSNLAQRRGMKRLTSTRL
Serine/threonine-protein kinase PAK 3 (Homo sapiens), sequence (O75914 whole entry, looked up): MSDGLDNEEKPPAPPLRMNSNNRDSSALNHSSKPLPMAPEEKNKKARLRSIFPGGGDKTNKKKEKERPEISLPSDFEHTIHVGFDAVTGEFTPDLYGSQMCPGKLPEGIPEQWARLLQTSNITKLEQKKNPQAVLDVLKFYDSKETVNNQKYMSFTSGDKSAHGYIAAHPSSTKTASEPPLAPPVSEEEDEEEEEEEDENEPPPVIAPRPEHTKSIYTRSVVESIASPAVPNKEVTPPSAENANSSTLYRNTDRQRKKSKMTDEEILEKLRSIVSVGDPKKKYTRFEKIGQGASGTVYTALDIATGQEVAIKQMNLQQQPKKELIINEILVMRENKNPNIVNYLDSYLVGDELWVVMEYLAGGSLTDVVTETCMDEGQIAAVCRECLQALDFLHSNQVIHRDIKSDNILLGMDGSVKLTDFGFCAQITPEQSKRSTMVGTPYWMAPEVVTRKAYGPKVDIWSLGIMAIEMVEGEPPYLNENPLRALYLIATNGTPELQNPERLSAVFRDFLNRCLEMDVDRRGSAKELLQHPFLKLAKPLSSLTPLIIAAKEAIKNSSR

In the case of `N#Cc1cccc(-c2c[nH]c3ncnc(N4CCOCC4)c23)c1`, in assay [1], the % of inhibition stood at 0%.

`Cc1cnc(Nc2ccc(F)cc2Cl)nc1-c1c[nH]c(C(=O)N[C@H](CO)c2cccc(Cl)c2)c1`: the % of inhibition in assay [2] stood at 0%; in assay [3], 7%.

`C=CC(=O)Nc1cc(-n2c(=O)ccc3cnc4ccc(-c5ccc(NS(C)(=O)=O)cc5)cc4c32)ccc1C`: the % of control came out at 98% in assay [4] (at 1 µM) and 100% in [4] (at 10 µM).

For the compound `COc1cc(Nc2nc(C)cc(-c3cnn4nc(OC)ccc34)n2)cc(C(F)(F)F)c1`, the values for the % of control in [5] and in [6] were 100% and 81%, respectively.

`Cc1ccc(-c2ccc3c(ccc4sc5c(c43)NC[C@@H](C)NC5=O)n2)cn1`: in assay [7], the % of inhibition is -14%.

As to `CN(C)CCOc1ccc(-c2nc(-c3ccncc3)c(-c3ccc4c(c3)CC/C4=N\O)[nH]2)cc1`, the results for the % of control in assay [8] and in assay [9] were 100% and 72%, respectively.

In [10], `O[C@H]1CC[C@H](Nc2ncc3nc(Nc4c(F)cc(F)cc4F)n([C@H]4CCOC4)c3n2)CC1` registered a % of control of 95%.

In turn, `Nc1cnc(N2CCc3cc(S(=O)(=O)Nc4c(F)cc(Cl)cc4F)cc(N4CCCC4=O)c32)nc1` [TP-020n] had a % of control in assay [11] of 100%.
